Assay results as given in patent US20090076092A1, “METHOD FOR DISRUPTING REPRODUCTIVE PERFORMANCE OF ARTHROPODS” (priority 2006, published 2009).

Columns and labels:
[1] = test system: diamondback moth (Plutella xylostella); test: Test G: number of eggs (fecundity) of adult diamondback moth; format: in vivo; details: 10 ppm, control itself gave very few eggs
Excerpt: For evaluating the reproductive performance effects on diamondback moth (Plutella xylostella), a minimum of 120 larvae of diamondback moth of each sex were used. Male and female individuals of late instar larvae were separated and caged in individual containers containing Chinese kale. Male diamondback moths were identified by a white dot on the abdomen at the late instar larval stage. When pupae emerged, each pupa was caged separately until it emerged as adult.
In addition, a control without test compound was included.
Groups of 40 newly emerged (<24 hours) moths of the same sex were placed inside a meshed cage. The caged adult moths were then sprayed with the test solution, using a CO2 backpack sprayer at 500 L/Ha. For the control treatment, the adults were sprayed with water at a similar spray volume. The groups of treated individuals were then transferred into a clean container with a source of adult diet (i.e. a cotton wick soaked in 10% sucrose solution). Separate containers were used for different groups of treated insects. One day after treatment, the numbers of live, moribund and dead adults were counted. One live treated male and one live treated female were placed together in a copulation cage, which was a 300 mL clear plastic cup covered with nylon screen supplied with an adult diet source of 10% sucrose solution.
Each pair of virgin adults was a replicate, and each treatment consisted of 10 to 20 replicates. Every day each pair of moths was moved to a new cup supplied with a diet of 10% sucrose solution.
The number of eggs laid per female moth was counted daily during the two days when the female moths actively produced viable eggs. The results, listed in Table G, indicate that no meaningful comparative information can be inferred, as the even the Control provided very few eggs per female moth; this indicates a systemic reproduction problem from unknown causes. However, had the Control worked, we expect to see the reproductive performance effects on diamondback moth.

[2] = test system: beet armyworm (Spodoptera exigua); test: Test F: oviposition and egg hatch of treated beet armyworm adults; format: in vivo; details: for % of reduction: oviposition versus control; for No. neonates: total from successful egg hatch
Excerpt: For evaluating the reproductive performance effects on beet armyworm (Spodoptera exigua), each test unit consisted of one pair of adult (female and male) Spodoptera exigua moths. To obtain the adult moths, pupae of approximately the same age (±1 day) were sexed and placed in individual containers until adults emerged. After emergence, the test insects were placed in a meshed cage.
(§1) Sub-lethal concentrations of Compound 1 on beet armyworm were defined based on a preliminary study using rates of 12.5, 25, 50 and 100 ppm.
The caged adults were sprayed with test solutions of the designated treatments using a compressed air-propelled (moving) belt sprayer calibrated at 0.7 m/sec (to deliver a flow rate was ca. 5.5 mL/sec), at 207 kPa, using nozzle 8001E Tee Jet flat fan spray nozzle positioned 18 cm above the test units. Each treatment had 12 replicates (i.e. 12 adult females and 12 adult males were used per treatment).
One day after treatment, a treated male and female (one each) were placed in a cage made from a 300 mL clear plastic cup covered with screened cloth and allowed to copulate. A cotton wick/plug soaked with 10% sucrose solution was supplied in each cage as a diet source.
The number of eggs laid and number of eggs hatched were counted at 3, 4, 5 and 6 days after treatment (DAT), which represented the typical period in which female moths actively produce viable eggs. The pair of moths was transferred to a new cage after each evaluation. To evaluate the number of egg hatched, the copulation cages containing eggs were saved and maintained in a growth chamber at 27° C., 50% relative humidity and 16 hours of light per day.
The raw data were analyzed using Fisher's LSD tests for means separation. […] The percent of reduction was derived by dividing the number of eggs from each treatment by the number of eggs from the control, subtracting the quotient from 1, and then multiplying by 100%.

beet armyworm = test: Preliminary dose-response study on beet armyworm; format: in vivo, Spodoptera exigua; details: beet armyworm adults; estimated from the dose-response curve (12.5, 25, 50 and 100 ppm)
Excerpt: The sub-lethal concentrations or doses used in the various tests for the specific pest species and populations tested in the context of the present invention were estimated from multiple-rate, dose-finding tests to determine the control rates and activity break rates. […] Therefore, depending on the target pest species, either the LC50 or a suitable concentration between LC50 and LC20 was selected as the sub-lethal dose. The specific procedures used to select the respective doses are described in each Test.
as §1

SMILES: CNC(=O)c1cc(Cl)cc(C)c1NC(=O)c1cc(Br)nn1-c1ncccc1Cl [Compound 1, 3-bromo-N-[4-chloro-2-methyl-6-[(methylamino)carbonyl]phenyl]-1-(3-chloro-2-pyridinyl)-1H-pyrazole-5-carboxamide]
- No. of eggs per female moth ([1]; 1 DAT): 0
- No. of eggs per female moth ([1]; 2 DAT): 2.2
- % hatched ([2]; 12.5 ppm, 3 DAT): 83%
- No. eggs ([2]; 12.5 ppm, 3 DAT): 782 b
- % of reduction ([2]; 12.5 ppm, 3 DAT): 66%
- No. neonates ([2]; 12.5 ppm, 3 DAT): 647 b
- % hatched ([2]; 12.5 ppm, 4 DAT): 82%
- No. eggs ([2]; 12.5 ppm, 4 DAT): 315 b
- % of reduction ([2]; 12.5 ppm, 4 DAT): 66%
- No. neonates ([2]; 12.5 ppm, 4 DAT): 257 b
- % hatched ([2]; 12.5 ppm, 5 DAT): 60%
- No. eggs ([2]; 12.5 ppm, 5 DAT): 256 b
- % of reduction ([2]; 12.5 ppm, 5 DAT): 77%
- No. neonates ([2]; 12.5 ppm, 5 DAT): 154 b
- % hatched ([2]; 12.5 ppm, 6 DAT): 41%
- No. eggs ([2]; 12.5 ppm, 6 DAT): 219 b
- % of reduction ([2]; 12.5 ppm, 6 DAT): 73%
- No. neonates ([2]; 12.5 ppm, 6 DAT): 90 b
- % hatched ([2]; 20 ppm, 3 DAT): 31%
- No. eggs ([2]; 20 ppm, 3 DAT): 208 b
- % of reduction ([2]; 20 ppm, 3 DAT): 91%
- No. neonates ([2]; 20 ppm, 3 DAT): 65 b
- % hatched ([2]; 20 ppm, 4 DAT): 0%
- No. eggs ([2]; 20 ppm, 4 DAT): 134 bc
- % of reduction ([2]; 20 ppm, 4 DAT): 91%
- No. neonates ([2]; 20 ppm, 4 DAT): 0 b
- % hatched ([2]; 20 ppm, 5 DAT): 0%
- No. eggs ([2]; 20 ppm, 5 DAT): 132 b
- % of reduction ([2]; 20 ppm, 5 DAT): 89%
- No. neonates ([2]; 20 ppm, 5 DAT): 0 b
- % hatched ([2]; 20 ppm, 6 DAT): 0%
- No. eggs ([2]; 20 ppm, 6 DAT): 109 b
- % of reduction ([2]; 20 ppm, 6 DAT): 87%
- No. neonates ([2]; 20 ppm, 6 DAT): 0 b
- % hatched ([2]; 31 ppm, 3 DAT): 0%
- No. eggs ([2]; 31 ppm, 3 DAT): 61 b
- % of reduction ([2]; 31 ppm, 3 DAT): 97%
- No. neonates ([2]; 31 ppm, 3 DAT): 0 b
- % hatched ([2]; 31 ppm, 4 DAT): 0%
- No. eggs ([2]; 31 ppm, 4 DAT): 29 c
- % of reduction ([2]; 31 ppm, 4 DAT): 97%
- No. neonates ([2]; 31 ppm, 4 DAT): 0 b
- % hatched ([2]; 31 ppm, 5 DAT): 0%
- No. eggs ([2]; 31 ppm, 5 DAT): 91 b
- % of reduction ([2]; 31 ppm, 5 DAT): 92%
- No. neonates ([2]; 31 ppm, 5 DAT): 0 b
- % hatched ([2]; 31 ppm, 6 DAT): 0%
- No. eggs ([2]; 31 ppm, 6 DAT): 108 b
- % of reduction ([2]; 31 ppm, 6 DAT): 87%
- No. neonates ([2]; 31 ppm, 6 DAT): 0 b
- number of eggs (fecundity) and number of neonates (fertility) versus control ([2]; all the tested rates (12.5, 20, 31 ppm), all the observation dates): significant reductions
- LC20 (beet armyworm): 12.5 ppm
- LC50 (beet armyworm): 20 ppm
- LC80 (beet armyworm): 31 ppm
